Patent publication US20260000674A1, “PHARMACEUTICAL COMPOSITION” (GEXVal Inc., priority 2022, published 2026)
Structures can show the parent of a compound that is named as a salt.

System: dermatitis in psoriasis model mice
Assay: Auricular thickening in imiquimod-induced psoriasis model mice (Test Examples 1 to 7)
Assay type: in vivo, male BALB/cCrSlc mice
Conditions: oral, Day 0 to Day 3
Experimental: 15 mg/ear of imiquimod cream (product name: Beselna cream, manufactured by Mochida Pharmaceutical Co., Ltd.) was repeatedly applied to the right auricle of male BALB/cCrSlc mice (9 weeks old) at once a day for 4 days (Day 0 to Day 3) to prepare psoriasis model mice. One hour before the imiquimod application, Vehicle (0.5% methylcellulose (hereinafter abbreviated as 0.5% MC)), 3 mg/kg body weight MSP (5-HT4 receptor agonist), 3 mg/kg body weight RZT (5-HT1 receptor agonist), 3 mg/kg body weight TDS (5-HT1 receptor agonist), 3 mg/kg body weight LCS (5-HT2 receptor agonist), and 10 mg/kg body weight APR (positive control) were orally administered at 10 mL/kg body weight each (Day 0 to Day 3) (n=6 per administration group). The auricular thickness was measured before the imiquimod cream application (Day 0) and approximately 24 hours after the final administration of each evaluation substance (Day 1 to Day 4), and the difference in auricular thickness (auricular thickening) between Day 0 and Day 4 was evaluated as the degree of inflammation. Day 0 was defined as the day on which the imiquimod cream application was started.
(§1) Psoriasis model mice were prepared by the same method as in Test Example 1, and Vehicle (0.5% MC), 3 mg/kg body weight MSP, 30 mg/kg body weight MSP, and 10 mg/kg body weight APR (positive control) were orally administered at 10 mL/kg body weight each (Day 0 to Day 3) (n=6 per administration group). The difference in auricular thickness (auricular thickening) between Day 0 and Day 4 was evaluated as the degree of inflammation.
as §1, with “weight MSP, 3 mg/kg body weight PCP, 10 mg/kg body weight PCP, 30 mg/kg” for “weight MSP, 30 mg/kg”, “body weight PCP, 3 mg/kg body weight VRG, 10 mg/kg body weight VRG, 30 mg/kg body weight VRG, and 10” for “body weight MSP, and 10”, “10 mL/kg each (Day” for “10 mL/kg body weight each (Day”
as §1, with “(0.5% MC), 30 mg/kg body” for “(0.5% MC), 3 mg/kg body”, “body weight CNP, 30 mg/kg body weight VRG, 30 mg/kg body weight CBP, and 10” for “body weight MSP, and 10”
as §1, with “MC),” for “MC), 3 mg/kg body weight MSP,”, “PCP, 30 mg/kg body weight CSP, 30 mg/kg body weight TGR,” for “MSP,”
Psoriasis model mice were prepared by the same method as in Test Example 1, and Vehicle (0.5% MC), 30 mg/kg body weight FCT, 30 mg/kg body weight UMP, 30 mg/kg body weight RLP, 30 mg/kg body weight RZP, 30 mg/kg body weight MSP, and 10 mg/kg body weight APR (positive control) were orally administered at 10 mL/kg body weight each (Day 0 to Day 3) (n=6 per administration group). The difference in auricular thickness (auricular thickening) between Day 0 and Day 4 was evaluated as the degree of inflammation.
Psoriasis model mice were prepared by the same method as in Test Example 1, and Vehicle (0.5% MC), 30 mg/kg body weight NRP, 30 mg/kg body weight CJ-033466, 30 mg/kg body weight RVP, 30 mg/kg body weight E-3620, 30 mg/kg body weight MSP, and 10 mg/kg body weight APR (positive control) were orally administered at 10 mL/kg body weight each (Day 0 to Day 3) (n=6 per administration group). […]

[1] = Test Example 6, FIG. 6, 30 mg/kg body weight
[2] = Test Example 7, FIG. 7, 30 mg/kg body weight
[3] = Test Example 4, FIG. 4, 30 mg/kg body weight
[4] = Test Example 5, FIG. 5, 30 mg/kg body weight
[5] = Test Example 1, FIG. 1, 3 mg/kg body weight
[6] = Test Example 3, FIG. 3, at all doses (3, 10 and 30 mg/kg body weight)

COC(=O)N1CCC(CN2CCC(CNC(=O)c3cccc4nc(C(C)C)[nH]c34)CC2)CC1 [FCT, Felcisetrag]
auricular thickening (difference in auricular thickness between Day 0 and Day 4) compared with 0.5% MC [1]: significantly suppressed the auricular thickening

CC#C[C@H](C)Oc1cc(N)c(Cl)cc1C(=O)NC1C[C@H]2CC[C@@H](C1)N2C.Cl (stereo partly shown) [E-3620]
auricular thickening (difference in auricular thickness between Day 0 and Day 4) compared with 0.5% MC [2]: significantly suppressed the auricular thickening

COc1cc(N)c(Cl)cc1C(=O)NC1CCN(Cc2ccccc2)CC1 [CBP, Clebopride malate]
auricular thickening (difference in auricular thickness between Day 0 and Day 4) compared with 0.5% MC [3]: significantly suppressed the auricular thickening

CCOc1cc([C@@H](CS(C)(=O)=O)N2C(=O)c3cccc(NC(C)=O)c3C2=O)ccc1OC [APR, Apremilast]
auricular thickening (difference in auricular thickness between Day 0 and Day 4) compared with 0.5% MC (Test Example 1, FIG. 1, 10 mg/kg body weight): significantly suppressed the auricular thickening | auricular thickening (difference in auricular thickness between Day 0 and Day 4) compared with 0.5% MC (Test Example 3, FIG. 3, 10 mg/kg body weight): significantly suppressed the auricular thickening | auricular thickening (difference in auricular thickness between Day 0 and Day 4) compared with 0.5% MC (Test Example 4, FIG. 4, 10 mg/kg body weight): significantly suppressed the auricular thickening | auricular thickening (difference in auricular thickness between Day 0 and Day 4) compared with 0.5% MC (Test Example 5, FIG. 5, 10 mg/kg body weight): significantly suppressed the auricular thickening | auricular thickening (difference in auricular thickness between Day 0 and Day 4) compared with 0.5% MC (Test Example 6, FIG. 6, 10 mg/kg body weight): significantly suppressed the auricular thickening | auricular thickening (difference in auricular thickness between Day 0 and Day 4) compared with 0.5% MC (Test Example 7, FIG. 7, 10 mg/kg body weight): significantly suppressed the auricular thickening

COc1cc(N)c(Cl)cc1C(=O)NC1CCN(CCCOc2ccc(F)cc2)CC1OC (stereo not shown) [CSP, Cisapride]
auricular thickening (difference in auricular thickness between Day 0 and Day 4) compared with 0.5% MC [4]: significantly suppressed the auricular thickening

COCCCN1CC[C@@H](CNC(=O)c2cc(Cl)c(N)c3c2OC(C)(C)C3)[C@H](O)C1 [RVP, Revexepride]
auricular thickening (difference in auricular thickness between Day 0 and Day 4) compared with 0.5% MC [2]: significantly suppressed the auricular thickening

Cinitapride tartrate [CNP]
auricular thickening (difference in auricular thickness between Day 0 and Day 4) compared with 0.5% MC [3]: significantly suppressed the auricular thickening

COc1cc(N)c(Cl)cc1C(=O)NCC1CCN(CC[C@H](OC(N)=O)c2ccc(F)cc2)CC1.Cl [RLP, Relenopride hydrochloride]
auricular thickening (difference in auricular thickness between Day 0 and Day 4) compared with 0.5% MC [1]: significantly suppressed the auricular thickening

CN(C)CCc1c[nH]c2ccc(Cn3cncn3)cc12 [RZT, Rizatriptan benzoate]
auricular thickening (difference in auricular thickness between Day 0 and Day 4) compared with 0.5% MC [5]: none of 3 mg/kg body weight RZT (5-HT1 receptor agonist) (comparative example), 3 mg/kg body weight TDS (5-HT1 receptor agonist) (comparative example), and 3 mg/kg body weight LCS (5-HT2 receptor agonist) (comparative example) suppressed the auricular thickening

C[C@H]1CNCCc2ccc(Cl)cc21 [LCS, Lorcaserin hydrochloride]
auricular thickening (difference in auricular thickness between Day 0 and Day 4) compared with 0.5% MC [5]: none of 3 mg/kg body weight RZT (5-HT1 receptor agonist) (comparative example), 3 mg/kg body weight TDS (5-HT1 receptor agonist) (comparative example), and 3 mg/kg body weight LCS (5-HT2 receptor agonist) (comparative example) suppressed the auricular thickening

COc1cc(N)c(Cl)cc1C(=O)N[C@@H]1CCN(CCCCCC(=O)O[C@H]2CN3CCC2CC3)C[C@@H]1OC [NRP, Naronapride hydrochloride]
auricular thickening (difference in auricular thickness between Day 0 and Day 4) compared with 0.5% MC [2]: significantly suppressed the auricular thickening

COCCCN1CCC(c2nnc(-c3nn(C(C)C)c4ccccc34)o2)CC1 [UMP, Usmarapride]
auricular thickening (difference in auricular thickness between Day 0 and Day 4) compared with 0.5% MC [1]: significantly suppressed the auricular thickening

CC(C)n1c(=O)c(C(=O)N[C@H]2C[C@H]3CC[C@@H](C2)N3C[C@@H](O)CN(C)S(C)(=O)=O)cc2ccccc21 [VRG, Velusetrag]
auricular thickening (difference in auricular thickness between Day 0 and Day 4) compared with 0.5% MC [6]: significantly suppressed the auricular thickening at all doses | auricular thickening (difference in auricular thickness between Day 0 and Day 4) compared with 0.5% MC [3]: significantly suppressed the auricular thickening

Prucalopride succinate [PCP]
auricular thickening (difference in auricular thickness between Day 0 and Day 4) compared with 0.5% MC [6]: significantly suppressed the auricular thickening at all doses | auricular thickening (difference in auricular thickness between Day 0 and Day 4) compared with 0.5% MC [4]: significantly suppressed the auricular thickening

[H]/N=C(/NCCCCC)N/N=C/c1c[nH]c2ccc(OC)cc12 [TGR, Tegaserod maleate]
auricular thickening (difference in auricular thickness between Day 0 and Day 4) compared with 0.5% MC [4]: significantly suppressed the auricular thickening

Mosapride citrate dihydrate [MSP]
auricular thickening (difference in auricular thickness between Day 0 and Day 4) compared with 0.5% MC [5]: significantly suppressed the auricular thickening | auricular thickening (difference in auricular thickness between Day 0 and Day 4) compared with 0.5% MC (Test Example 2, FIG. 2, 3 mg/kg body weight): significantly suppressed the auricular thickening in a dose-dependent manner | auricular thickening (difference in auricular thickness between Day 0 and Day 4) compared with 0.5% MC (Test Example 2, FIG. 2, 30 mg/kg body weight): significantly suppressed the auricular thickening in a dose-dependent manner | auricular thickening (difference in auricular thickness between Day 0 and Day 4) compared with 0.5% MC (Test Example 3, FIG. 3, 3 mg/kg body weight): significantly suppressed the auricular thickening | auricular thickening (difference in auricular thickness between Day 0 and Day 4) compared with 0.5% MC [3]: significantly suppressed the auricular thickening | auricular thickening (difference in auricular thickness between Day 0 and Day 4) compared with 0.5% MC [1]: significantly suppressed the auricular thickening | auricular thickening (difference in auricular thickness between Day 0 and Day 4) compared with 0.5% MC [2]: significantly suppressed the auricular thickening

Cc1cn2c(N)c(Cl)cc(C(=O)NCC3CCN(CC(C)C)CC3)c2n1 [CJ-033466]
auricular thickening (difference in auricular thickness between Day 0 and Day 4) compared with 0.5% MC [2]: significantly suppressed the auricular thickening

Tandospirone citrate [TDS]
auricular thickening (difference in auricular thickness between Day 0 and Day 4) compared with 0.5% MC [5]: none of 3 mg/kg body weight RZT (5-HT1 receptor agonist) (comparative example), 3 mg/kg body weight TDS (5-HT1 receptor agonist) (comparative example), and 3 mg/kg body weight LCS (5-HT2 receptor agonist) (comparative example) suppressed the auricular thickening
